± gives the expanded uncertainty stated by the source. Each block holds one molecule with its values, some of them ahead of it.
Assay: activity coefficient (dimensionless); of the first substance listed, at infinite dilution; xn = mol fraction of the nth substance listed
Conditions: 101 kPa, Liquid, dilutor technique, x1 = 0

Compound: CCCCCCC [heptane] + CCCCn1cc[n+](C)c1.F[B-](F)(F)F
activity coefficient (323.16 K): 95.8 ± 4.8
activity coefficient (328.16 K): 89 ± 4.5
activity coefficient (333.14 K): 83.8 ± 4.2
activity coefficient (338.14 K): 80.1 ± 4
activity coefficient (343.22 K): 75.3 ± 3.8

Compound: C=CCCCC [hex-1-ene] + CCCCCCn1cc[n+](C)c1.F[B-](F)(F)F
activity coefficient (318.11 K): 13 ± 0.65
activity coefficient (328.19 K): 12.1 ± 0.61
activity coefficient (338.17 K): 11.9 ± 0.6
activity coefficient (348.15 K): 11.4 ± 0.57

Compound: C=CCCCCC [1-heptene] + CCCCCCn1cc[n+](C)c1.F[B-](F)(F)F
activity coefficient (318.11 K): 19.6 ± 0.98
activity coefficient (328.19 K): 19.3 ± 0.97
activity coefficient (338.14 K): 18.8 ± 0.94
activity coefficient (348.11 K): 18 ± 0.9

Compound: C=CCCCCCCCC [1-decene] + CCCCn1cc[n+](C)c1.F[B-](F)(F)F
activity coefficient (323.16 K): 224 ± 11
activity coefficient (333.17 K): 207 ± 10
activity coefficient (343.17 K): 190 ± 9.5
activity coefficient (353.16 K): 180 ± 9

Compound: CCCCCCCC [octane] + CCCCCCn1cc[n+](C)c1.F[B-](F)(F)F
activity coefficient (303.16 K): 69.6 ± 3.5
activity coefficient (318.14 K): 62.3 ± 3.1
activity coefficient (323.27 K): 59.5 ± 3
activity coefficient (333.11 K): 56 ± 2.8
activity coefficient (343.09 K): 52.5 ± 2.6

Compound: CCCCCCC [heptane] + CCCCCCn1cc[n+](C)c1.F[B-](F)(F)F
activity coefficient (303.16 K): 45 ± 2.2
activity coefficient (318.14 K): 42 ± 2.1
activity coefficient (323.27 K): 41.1 ± 2
activity coefficient (333.11 K): 38.9 ± 1.9
activity coefficient (343.09 K): 36.8 ± 1.8

Compound: CCCCCCCCCC [decane] + CCCCn1cc[n+](C)c1.F[B-](F)(F)F
activity coefficient (323.12 K): 620 ± 31
activity coefficient (343.21 K): 443 ± 22
activity coefficient (353.16 K): 383 ± 19

Compound: CCCCCCCCCC [decane] + CCCCCCn1cc[n+](C)c1.F[B-](F)(F)F
activity coefficient (318.21 K): 129 ± 6.4
activity coefficient (328.16 K): 115 ± 5.8
activity coefficient (338.14 K): 110 ± 5.5
activity coefficient (348.16 K): 104 ± 5.2

Compound: C=CCCCCCC [oct-1-ene] + CCCCn1cc[n+](C)c1.F[B-](F)(F)F
activity coefficient (323.16 K): 88.6 ± 4.4
activity coefficient (333.24 K): 84.8 ± 4.2
activity coefficient (343.15 K): 78.8 ± 3.9
activity coefficient (353.23 K): 74.2 ± 3.7

Compound: C=CCCCCCC [oct-1-ene] + CCCCCCn1cc[n+](C)c1.F[B-](F)(F)F
activity coefficient (318.11 K): 29.4 ± 1.5
activity coefficient (328.19 K): 28.1 ± 1.4
activity coefficient (338.14 K): 27.2 ± 1.4
activity coefficient (348.11 K): 25.8 ± 1.3

Compound: CCCCCCCCC [nonane] + CCCCn1cc[n+](C)c1.F[B-](F)(F)F
activity coefficient (323.12 K): 334 ± 17
activity coefficient (343.21 K): 270 ± 14
activity coefficient (353.16 K): 225 ± 11

Compound: C=CCCCCCCCC [1-decene] + CCCCCCn1cc[n+](C)c1.F[B-](F)(F)F
activity coefficient (318.2 K): 54.6 ± 2.7
activity coefficient (328.16 K): 48.7 ± 2.4
activity coefficient (338.17 K): 46 ± 2.3

Compound: CCCCCCCC [octane] + CCCCn1cc[n+](C)c1.F[B-](F)(F)F
activity coefficient (323.16 K): 170 ± 8.5
activity coefficient (328.16 K): 160 ± 8
activity coefficient (333.14 K): 155 ± 7.7
activity coefficient (338.14 K): 146 ± 7.3
activity coefficient (343.22 K): 143 ± 7.1

Compound: C=CCCCCC [1-heptene] + CCCCn1cc[n+](C)c1.F[B-](F)(F)F
activity coefficient (323.16 K): 52 ± 2.6
activity coefficient (333.24 K): 50.3 ± 2.5
activity coefficient (343.15 K): 46.6 ± 2.3
activity coefficient (353.23 K): 43.2 ± 2.2

Compound: C=CCCCC [hex-1-ene] + CCCCn1cc[n+](C)c1.F[B-](F)(F)F
activity coefficient (323.16 K): 30.1 ± 1.5
activity coefficient (333.15 K): 27.8 ± 1.4
activity coefficient (343.22 K): 25.7 ± 1.3
activity coefficient (353.14 K): 23.9 ± 1.2

activity coefficient (323.15 K): 66.7 ± 3.3
activity coefficient (328.18 K): 63.3 ± 3.2
activity coefficient (333.2 K): 61 ± 3
activity coefficient (343.26 K): 54.9 ± 2.8
Compound: CCCCCC [hexane] + CCCCn1cc[n+](C)c1.F[B-](F)(F)F

Compound: CCCCCCCCC [nonane] + CCCCCCn1cc[n+](C)c1.F[B-](F)(F)F
activity coefficient (318.21 K): 88 ± 4.4
activity coefficient (328.16 K): 81.2 ± 4.1
activity coefficient (338.14 K): 76.7 ± 3.8
activity coefficient (348.16 K): 72.9 ± 3.6

Source: the NIST ThermoML archive (doi:10.1016/j.fluid.2009.05.007)
